From patent US8394765B2, “Methods of treating obesity with two different anti-obesity agents” (Amylin Pharmaceuticals LLC, priority 2004, dated 2013) come the findings set out here.

Holding throughout (type): in vivo, rat
Test [1] in a line: DIO rats, amylin and PYY(3-36), body weight and body composition (Example 7). The method, then: Each group was implanted with subcutaneous osmotic mini-pumps, designed to deliver vehicle, PYY(3-36) (1000 μg/kg/day), amylin (100 μg/kg/day) or PYY(3-36) (1000 μg/kg/day)+amylin (100 μg/kg/day) for a 14 day period. PYY(3-36) was administered by mini-pump at a range of doses (100, 200, 400, 800, 1000 μg/kg/day). Amylin 100 μg/kg/day (dissolved in 50% DMSO sterile water), PYY(3-36) (dissolved in 50% DMSO sterile water) or vehicle was administered by mini-pump. Food intake and body weight was recorded daily. Body composition was measured prior to and after drug treatment using NMR (Echo Medical Systems, Houston, Tex.). For body composition measurements, rats were briefly placed (˜1 min) in a well-ventilated plexiglass tube that was then inserted into a specialized rodent NMR machine. Rats were scanned prior to pump implantation and on the final day of the experiment. This enabled the calculation of changes in actual grams of fat and dry lean tissue (e.g., grams of body fat after treatment−grams of body fat at baseline […]) and changes in % body composition for fat and dry lean tissue (e.g., % body fat after treatment−% body fat at baseline=change in % body fat).

A short description of test [2]: DIO rats, amylin and exendin-4 analog, body weight and body composition (Example 6). The method, then: […]. Prior to drug administration rats had typically attained a mean body weight of 500 g Exendin-4 analog was administered by minipump at a range of doses (0.3, 1, 3, 10, 30 μg/kg/day). Amylin (dissolved in 50% DMSO in water) or vehicle was administered by mini-pump (100 μg/kg/day). Body weight and food intake was recorded daily. Body composition was measured prior to and after drug treatment using NMR (Echo Medical Systems, Houston, Tex.). For body composition measurements, rats were briefly placed (˜1 min) in a well-ventilated plexiglass tube that was then inserted into a specialized rodent NMR machine. Rats were scanned prior to pump implantation and on the final day of the experiment. This enabled the calculation of changes in actual grams of fat and dry lean tissue (e.g., grams of body fat after treatment−grams of body fat at baseline=change in grams of body fat) and changes in % body composition for fat and dry lean tissue (e.g., % body fat after treatment−% body fat at baseline=change in % body fat).

Test [3] can be described thus: Serum leptin levels by immunoassay in DIO prone and normal HSD rats after amylin (Example 3). The conditions noted are these: amylin 100 μg/kg/day, 14 days, FIG. 8. Here is the method: DIO prone and normal HSD rats were divided into three treatment groups. Two groups were implanted with subcutaneous osmotic mini-pumps (DURECT Corp., Cupertino, Calif.) designed to deliver vehicle or amylin (100 μg/kg/day) and the third group was pair-fed to the amount consumed by the amylin-treated group for a 14 day period. Serum leptin levels were determined by immunoassays using a commercial kit (Linco Research, Inc., St. Charles, Mo.). […] Thus, DIO prone rats are hyper-leptinemic.

The nature of test [4]: DIO (Levin) rats, amylin and CB-1 antagonist rimonabant, body weight and body composition (Example 5). Here is the method: These rats were developed by Barry Levin from a line of Crl:CD®(SD)BR rats that are prone to become obese on a diet relatively high in fat and energy. They were housed individually in shoebox cages at 22 C in a 12/12-hour light dark cycle. […] Rats were habituated to oral gavage for 1 week prior to treatment. Rimonabant was administered at a range of doses (0.1, 0.3, 1.0, 3.0. 10 mg/kg/day) by oral gavage. Amylin (dissolved in 50% DMSO sterile water) or vehicle was administered by mini-pump (100 μg/kg/day). Rimonabant was always delivered just prior to lights out. Food intake and body weight were measured at 1 and 2 weeks post-treatment. Body composition was measured prior to and after drug treatment using NMR (Echo Medical Systems, Houston, Tex.). For body composition measurements, rats were briefly placed (˜1 min) in a well-ventilated plexiglass tube that was then inserted into a specialized rodent NMR machine. Rats were scanned prior to pump implantation and on the final day of the experiment. This enabled the calculation of changes in actual grams of fat and dry lean tissue (e.g., grams of body fat after treatment−grams of body fat at baseline=change in grams of body fat) and changes in % body composition for fat and dry lean tissue (e.g., % body fat after treatment−% body fat at baseline=change in % body fat).

Test [5] in a line: Pair-feeding experiment in DIO rats, amylin+leptin (Example 2). The conditions noted are these: two weeks, ad libitum access to food, FIG. 7. The method, then:
Amylin is known to have an anorectic effect on a recipient. In order to examine the effect of amylin+leptin in the context of an anorectic effect of amylin, a pair-feeding experiment was performed. DIO rats and drug treatment groups were established as described above. DIO rats in the vehicle, amylin, and amylin+leptin treatment groups had ad libitum access to food, while intake in the pair-fed leptin treatment was restricted to the amount consumed by the amylin-treated group. Body weight was recorded daily for the two weeks of treatment. […] The combination of amylin+leptin results in a decrease of about 12% in body weight relative to vehicle control.

Test [6] in a line: DIO rats, amylin and phentermine, body weight and body composition (Example 4). The method, then:
The combination of amylin and catecholaminergic agonist, phentermine, were also tested for effects on changes in body weight and body composition. Phentermine is classically referred to as a catecholaminergic agonist as it actually hits NA/5-HT receptors. DIO male rats were fattened and divided into four treatment groups, as described above. Each group was implanted with subcutaneous osmotic mini-pumps and/or inserted with an oral gavage, designed to deliver vehicle, phentermine (10 mg/kg/day), amylin (100 μg/kg/day) or phentermine (10 mg/kg/day)+amylin (100 μg/kg/day) for a 14 day period. The mini-pump contained either vehicle (50% DMSO in water) or amylin while the oral gavage administered either sterile water or phentermine. Body weight was recorded daily and body composition was measured prior to and after drug treatment using NMR.

The nature of test [7]: In-bred DIO (Levin) rats, amylin and leptin, body weight and NMR body composition (Example 2). The conditions noted are these: two weeks, leptin 500 μg/kg/day, amylin 100 μg/kg/day, FIG. 6A. The method, then:
They were housed individually in shoebox cages at 22 C in a 12/12-hour light dark cycle.
Body composition was measured prior to and after drug treatment using NMR (Echo Medical Systems, Houston, Tex.). For body composition measurements, rats were briefly placed (˜1 min) in a well-ventilated plexiglass tube that was then inserted into a specialized rodent NMR machine. Rats were scanned prior to pump implantation and on the final day of the experiment. This enabled the calculation of changes in actual grams of fat and dry lean tissue (e.g., grams of body fat after treatment−grams of body fat at baseline=change in grams of body fat) and changes in % body composition for fat and dry lean tissue (e.g., % body fat after treatment−% body fat at baseline=change in % body fat).

Test [8] in a line: DIO rats, amylin and sibutramine, body weight and body composition (Example 4). Here is the method:
Rat amylin was dissolved in 50% DMSO in sterile water and sibutramine was dissolved in sterile water. Each group was implanted with subcutaneous osmotic mini-pumps designed to deliver vehicle, sibutramine (3 mg/kg/day) or amylin (100 μg/kg/day) for a 14 day period. Body weight and food intake were recorded daily. Body composition was measured prior to and after drug treatment using NMR (Echo Medical Systems, Houston, Tex.). For body composition measurements, rats were briefly placed (˜1 min) in a well-ventilated plexiglass tube that was then inserted into a specialized rodent NMR machine. Rats were scanned prior to pump implantation and on the final day of the experiment. This enabled the calculation of changes in actual grams of fat and dry lean tissue (e.g., grams of body fat after treatment−grams of body fat at baseline=change in grams of body fat) and changes in % body composition for fat and dry lean tissue (e.g., % body fat after treatment−% body fat at baseline=change in % body fat).

As to Rat amylin, the “changes in body protein (lean mass)” value in test [1] (after two weeks, FIG. 16C) was “increase in lean (protein) mass”; in test [2] (after two weeks, FIG. 15C), “relatively equivalent increase in lean (protein) mass”; in test [4] (after two weeks, FIG. 12C), “relatively equivalent increase in lean (protein) mass”; in test [6] (after two weeks, FIG. 11C) it was “preserved lean (protein) mass”; in test [8] (after two weeks, FIG. 10C), “increase in lean (protein) mass”. The “changes in body fat (fat mass loss)” value in test [1] (after two weeks, order PYY(3-36) alone, amylin alone, combination, FIG. 16B) was “Increasing amount of fat mass loss”. For the same substance, the “vehicle-corrected decrease in percent body weight” value in test [1] (two weeks, PYY(3-36) 1000 μg/kg/day, amylin 100 μg/kg/day, FIG. 16A) is given as roughly 7%; in test [2] (two weeks, exendin-4 analog 10 μg/kg/day, amylin 100 μg/kg/day, FIG. 15A), roughly 6%; in test [4] (two weeks, rimonabant 3 mg/kg/day oral gavage, amylin 100 μg/kg/day, FIG. 12A) it was roughly 6%; in test [6] (two weeks, phentermine 10 mg/kg/day oral gavage, amylin 100 μg/kg/day, FIG. 11A), roughly 7%; in test [7], 6%; in test [8] (two weeks, sibutramine 3 mg/kg/day, amylin 100 μg/kg/day, FIG. 10A), roughly 6%. The “changes in body fat (fat mass)” value in test [2] (after two weeks, FIG. 15B) is recorded as “relatively equivalent decrease in fat mass”; in test [4] (after two weeks, FIG. 12B), “Fat mass loss was evident”; in test [6] (after two weeks, FIG. 11B) it was “greater amount of fat mass loss”; in test [8] (after two weeks, FIG. 10B), “Fat mass loss was evident”. Also, the “serum (plasma) leptin levels” value in test [3] (DIO prone rats) and in test [3] (normal HSD rats) was “significantly reduced” in each case. Further, in test [5], the “decrease in body weight relative to vehicle control” value is given as roughly 6%.
